Consider one molecule from US20210318318A1, “Kinase Activity In Tumors” (Institute For Cancer Research d/b/a The Research Institute …, priority 2018, published 2021).

The subject of one experiment is COV362 cells. Briefly: Migration assay (xCELLigence RTCA). The format is cell-based, human. The settings on record: 1 μM, 24 hour period. Here is the method: COV362 cells were treated with 1 μM of A-674563 or DMSO and migration monitored over a 24 hour period using the xCELLigence Real-Time Cell Analyzer (RTCA).
Cell migration assays were performed using the xCELLigence RTCA DP Instrument (ACEA Biosciences) in a CIM-Plate 16 (ACEA Biosciences). Complete medium was added to the lower chambers of the CIM-Plate (or serum free medium for negative control). In the upper chambers, 30 μL serum free medium was added to each well and the CIM-Plate was placed in the instrument to equilibrate for 1 hr at 37° C. Following this equilibration step, a background measurement was taken. The CIM-Plate was removed from the instrument, and COV362 cells were added to the upper chambers at 50,000 cells per well in serum free medium. The CIM-Plate was left at 25° C. for 30 minutes to allow the cells to settle at the bottom of the well. The plate was then returned to the instrument, and cell index reads were taken once every 15 minutes for 24 hours. For the siRNA experiment, the cells were transfected 24 hours prior to the start of the assay. For the A-674563 experiment, cells were pretreated with 1 μM inhibitor or DMSO 24 hours prior, and both upper and lower chambers contained 1 μM inhibitor or DMSO.

The target in the next experiment is MRCKA (Homo sapiens, UniProt Q5VT25). Briefly: MIB/MS kinome profiling of inhibitor-treated OVSAHO cells. The experiment is classed as cell-based. Particulars: 2 μM, 4 hour treatment. More on the design: endogenous in cells; host or cells: OVSAHO. The method, then: (§1) OVSAHO cells were treated with inhibitors at a dose of 2 μM for 4 hours and kinase inhibition profiles determined by MIB/MS. Bar graph depicts % of kinase bound to MIBs relative to DMSO control as determined by label free quantitation.
(§2) OVSAHO cells were treated with 2 μM of inhibitor for 4 hours and analyzed by MIB/MS. Scatterplot depicts difference in kinase MIB-binding of drug treated relative to control DMSO as determined by Students T-test.
(§3) MIB-based kinome profiling was performed on several of these molecules in HGSOC cells to determine kinome-wide inhibition profiles.
(§4) Experiments using MIB/MS were performed as previously described (Duncan et al., Cell, 2012, 149, 307-321; and Kurimchak et al., Cell Reports, 2016, 16, 1273-1286). Briefly, cells or tumors were lysed on ice in buffer containing 50 mM HEPES (pH 7.5), 0.5% Triton X-100, 150 mM NaCl, 1 mM EDTA, 1 mM EGTA, 10 mM sodium fluoride, 2.5 mM sodium orthovanadate, 1× protease inhibitor cocktail (Roche), and 1% each of phosphatase inhibitor cocktails 2 and 3 (Sigma). Particulate was removed by centrifugation of lysates at 13,000 rpm for 10 minutes at 4° C. and filtration through 0.2 μm syringe filters. Protein concentrations were determined by BCA analysis (Thermo). To compare kinome signatures within and across such large sample sizes, a super-SILAC method was designed (Neubert et al., Nat. Meth., 2010, 7, 361-362) consisting of a cocktail of cancer cell lines that encompasses the activity of the “cancer kinome” to be used as a control for individual samples. Five cancer cell lines were selected from the NCI-60 panel (UACC257, MOLT4, COL0205, ACHN and PC3) that differed in their origin, gene expression patterns and mutation status. The cancer cell lines were labeled using SILAC and mixed equally providing a diverse SILAC ([^13C6,^15N4] arginine (Arg^10) and […] (Lys^8)) heavy kinome reference standard (HKS) to be used repeatedly in kinome profiling assays. An equal amount of the HKS was added to the non-labeled sample (cell, tumor or normal tissue) providing a quantitative strategy to compare kinome activity/levels across samples, amongst treatments and, importantly, across time. […]
(§5) Proteolytic peptides were resuspended in 0.1% formic acid and separated with a Thermo RSLC Ultimate 3000 on a Thermo Easy-Spray C18 PepMap 75 μm×50 cm C-18 2 μm column with a 240 minute gradient of 4-25% acetonitrile with 0.1% formic acid at 300 nL/min and 50° C. Eluted peptides were analyzed by a Thermo Q Exactive plus mass spectrometer utilizing a top 15 methodology in which the 15 most intense peptide precursor ions were subjected to fragmentation.

The test system of experiment [1] is FAK1, MLC and Paxillin phosphorylation; FAK1 and CHEK1 protein levels. Briefly: Western blot of signaling in inhibitor-treated HGSOC cells. The format is cell-based, human. Particulars: 48 hours. The method, then: COV362 cells were treated with 0.5, 1 or 3 μM of A-674563 or SB-772077 for 48 hours and signaling monitored by western blot.
Samples were harvested in MIB lysis buffer, subjected to SDS-PAGE […] and transferred to PVDF membranes before western blotting with primary antibodies. For pMYPT and pMLC blots, cells were harvested in a buffer containing 1% (w/v) SDS, 50 mM Tris pH 7.5 supplemented with protease and phosphatase inhibitors buffer and were passed through QIAshredder columns (Qiagen, 79654), (Unbekandt et al., Cell Commun. Signal., 2014, 12, 54). For the list of primary antibodies used, see Table 4. Secondary HRP-anti-rabbit and HRP-anti-mouse were obtained from ThermoFisher Scientific. SuperSignal West Pico and Femto Chemiluminescent Substrates (Thermo) were used to visualize blots.
For orientation: Immunoblotting shows a protein as a band on a membrane.

For another experiment, the target named is T1, MRCKB (Homo sapiens, UniProt Q9Y5S2).
T1 construct: endogenous in cells; host or cells: OVSAHO
In words: MIB/MS kinome profiling of inhibitor-treated OVSAHO cells. The experiment is classed as cell-based. Particulars: 2 μM, 4 hour treatment. Here is the method: as §1, §2, §3, §4, §5

Sequence of MRCKA (Q5VT25 whole entry): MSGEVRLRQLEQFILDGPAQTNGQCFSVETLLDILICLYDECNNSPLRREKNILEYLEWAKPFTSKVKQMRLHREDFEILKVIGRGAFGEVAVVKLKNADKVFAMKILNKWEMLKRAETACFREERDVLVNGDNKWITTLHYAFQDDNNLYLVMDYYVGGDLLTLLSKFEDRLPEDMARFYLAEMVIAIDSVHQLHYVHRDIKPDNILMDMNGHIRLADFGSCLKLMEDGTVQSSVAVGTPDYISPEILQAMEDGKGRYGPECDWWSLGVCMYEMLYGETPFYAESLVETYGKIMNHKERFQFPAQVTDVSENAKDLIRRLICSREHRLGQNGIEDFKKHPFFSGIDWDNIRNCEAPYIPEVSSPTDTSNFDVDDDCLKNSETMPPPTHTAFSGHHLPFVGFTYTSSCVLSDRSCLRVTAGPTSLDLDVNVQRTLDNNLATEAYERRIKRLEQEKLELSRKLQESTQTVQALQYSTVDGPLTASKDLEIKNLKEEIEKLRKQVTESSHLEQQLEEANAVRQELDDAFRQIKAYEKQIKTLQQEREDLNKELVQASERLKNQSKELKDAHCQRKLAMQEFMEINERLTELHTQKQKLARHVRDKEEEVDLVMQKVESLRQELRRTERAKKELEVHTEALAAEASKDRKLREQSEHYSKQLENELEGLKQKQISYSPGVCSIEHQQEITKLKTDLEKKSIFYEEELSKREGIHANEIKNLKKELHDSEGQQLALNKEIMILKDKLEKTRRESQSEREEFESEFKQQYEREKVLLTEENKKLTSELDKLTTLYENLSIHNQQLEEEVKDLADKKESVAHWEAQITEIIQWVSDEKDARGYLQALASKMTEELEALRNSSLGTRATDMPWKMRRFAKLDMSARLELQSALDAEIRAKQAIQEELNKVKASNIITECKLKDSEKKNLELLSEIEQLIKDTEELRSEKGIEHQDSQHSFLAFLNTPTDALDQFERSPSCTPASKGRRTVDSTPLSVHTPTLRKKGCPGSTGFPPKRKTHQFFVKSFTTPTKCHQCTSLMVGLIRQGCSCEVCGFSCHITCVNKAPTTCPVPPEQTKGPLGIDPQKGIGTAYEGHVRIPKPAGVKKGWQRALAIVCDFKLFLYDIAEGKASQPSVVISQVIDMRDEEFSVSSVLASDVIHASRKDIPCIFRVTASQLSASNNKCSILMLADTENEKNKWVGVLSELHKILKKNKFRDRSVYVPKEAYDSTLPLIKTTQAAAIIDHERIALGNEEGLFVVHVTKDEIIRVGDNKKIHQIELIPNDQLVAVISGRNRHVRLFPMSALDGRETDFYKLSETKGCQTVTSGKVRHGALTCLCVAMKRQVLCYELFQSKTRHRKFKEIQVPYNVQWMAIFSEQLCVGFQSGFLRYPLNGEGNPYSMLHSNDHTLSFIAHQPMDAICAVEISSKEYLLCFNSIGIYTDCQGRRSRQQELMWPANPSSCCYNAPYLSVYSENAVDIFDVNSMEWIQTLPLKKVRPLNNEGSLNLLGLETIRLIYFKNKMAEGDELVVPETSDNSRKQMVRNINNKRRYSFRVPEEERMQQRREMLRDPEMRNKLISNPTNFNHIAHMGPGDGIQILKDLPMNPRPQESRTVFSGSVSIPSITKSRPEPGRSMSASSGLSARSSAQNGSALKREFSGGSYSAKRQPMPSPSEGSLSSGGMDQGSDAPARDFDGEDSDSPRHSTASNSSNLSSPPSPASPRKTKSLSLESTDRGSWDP
T1 sequence (Q9Y5S2 whole entry): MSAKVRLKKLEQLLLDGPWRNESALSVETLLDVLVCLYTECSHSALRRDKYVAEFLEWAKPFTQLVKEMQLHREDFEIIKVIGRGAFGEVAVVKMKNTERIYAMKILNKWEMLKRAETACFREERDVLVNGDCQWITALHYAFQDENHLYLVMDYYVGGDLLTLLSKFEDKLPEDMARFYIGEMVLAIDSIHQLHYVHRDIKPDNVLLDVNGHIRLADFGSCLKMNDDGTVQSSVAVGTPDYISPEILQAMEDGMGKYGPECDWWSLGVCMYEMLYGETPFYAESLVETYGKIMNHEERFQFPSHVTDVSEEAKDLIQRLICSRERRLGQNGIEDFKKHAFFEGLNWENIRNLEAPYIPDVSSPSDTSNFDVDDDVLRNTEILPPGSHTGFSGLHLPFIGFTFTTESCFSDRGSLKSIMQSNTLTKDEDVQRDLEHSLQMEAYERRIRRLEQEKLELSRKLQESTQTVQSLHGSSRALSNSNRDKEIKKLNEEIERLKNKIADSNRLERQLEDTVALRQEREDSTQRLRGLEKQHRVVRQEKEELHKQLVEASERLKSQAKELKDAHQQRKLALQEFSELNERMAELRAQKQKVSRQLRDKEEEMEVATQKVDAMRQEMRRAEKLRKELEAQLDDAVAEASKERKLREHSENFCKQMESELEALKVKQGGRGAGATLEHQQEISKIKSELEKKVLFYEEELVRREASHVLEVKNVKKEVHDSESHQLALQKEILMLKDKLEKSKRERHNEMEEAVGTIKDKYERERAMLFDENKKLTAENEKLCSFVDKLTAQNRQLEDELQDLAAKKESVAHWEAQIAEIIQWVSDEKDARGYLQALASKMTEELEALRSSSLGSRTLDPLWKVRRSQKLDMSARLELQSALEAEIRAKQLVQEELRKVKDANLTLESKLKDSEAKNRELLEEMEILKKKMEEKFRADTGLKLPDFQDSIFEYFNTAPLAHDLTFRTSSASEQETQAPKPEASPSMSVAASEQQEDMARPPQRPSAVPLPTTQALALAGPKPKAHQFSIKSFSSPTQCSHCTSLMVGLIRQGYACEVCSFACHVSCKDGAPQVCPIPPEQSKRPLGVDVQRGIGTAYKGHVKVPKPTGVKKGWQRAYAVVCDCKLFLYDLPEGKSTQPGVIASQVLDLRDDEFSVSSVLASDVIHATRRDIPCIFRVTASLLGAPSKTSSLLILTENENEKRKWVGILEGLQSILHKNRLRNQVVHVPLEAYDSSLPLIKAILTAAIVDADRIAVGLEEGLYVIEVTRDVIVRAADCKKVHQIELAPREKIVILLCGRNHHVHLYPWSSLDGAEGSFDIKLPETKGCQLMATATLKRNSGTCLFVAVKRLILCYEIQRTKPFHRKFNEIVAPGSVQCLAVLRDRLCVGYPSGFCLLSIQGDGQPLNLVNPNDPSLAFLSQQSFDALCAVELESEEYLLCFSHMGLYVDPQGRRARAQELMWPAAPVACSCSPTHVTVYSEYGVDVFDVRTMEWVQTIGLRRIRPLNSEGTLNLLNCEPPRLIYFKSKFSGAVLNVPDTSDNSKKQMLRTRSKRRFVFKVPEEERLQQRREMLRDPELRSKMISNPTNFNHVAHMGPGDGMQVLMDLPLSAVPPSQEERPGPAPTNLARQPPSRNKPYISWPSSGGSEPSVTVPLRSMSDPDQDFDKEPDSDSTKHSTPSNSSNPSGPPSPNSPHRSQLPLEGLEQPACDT

Turning to `Cc1[nH]nc2ccc(-c3cncc(OC[C@@H](N)Cc4ccccc4)c3)cc12` [A-674563], the cell migration entry in the experiment on COV362 cells was “reduced cell migration”. Besides, at MRCKA, the “MIB-binding of MRCKA relative to DMSO” value is “greatest reduction”. Also, the “FAK1 and CHEK1 protein levels” value in experiment [1] (HGSOC (COV362) cells, 0.5, 1 or 3 μM) was “uniquely reduced”. For the same molecule, the “FAK1, MLC and Paxillin phosphorylation” value in experiment [1] (HGSOC (COV362) cells, increasing doses 0.5, 1 or 3 μM) is given as “inhibited”. In addition, on MRCKB, the “MIB-binding of MRCKB relative to DMSO” value is “Reduced MIB-binding”.
